Values after ≈ are worked out from the molar mass of the structure shown.
How the values were obtained:
Assay type in all cases: functional
[1] = Cytotoxicity against human BC1 cells after 72 hrs; details: BC1, 72 h, read-out: ED50 (the source's name)
SK-MEL-2 = test: Cytotoxicity against human SK-MEL-2 cells after 72 hrs; details: SK-MEL-2, 72 h, read-out: ED50 (the source's name)
Col2 = test: Cytotoxicity against human Col2 cells after 72 hrs; details: Col2, 72 h, read-out: ED50 (the source's name)
Lu1 = test: Cytotoxicity against human Lu1 cells; details: read-out: ED50 (the source's name)
HT-1080 = test: Cytotoxicity against human HT1080 cells after 48 hrs; details: HT-1080, 48 h, read-out: ED50 (the source's name)
P388 = test: Cytotoxicity against mouse P388 cells after 48 hrs; details: P388, 48 h, read-out: ED50 (the source's name)
KB = test: Cytotoxicity against human KB cells after 72 hrs; details: read-out: ED50 (the source's name)

Row | Structure (SMILES) | EC50 [1] [µg/mL] | EC50 (SK-MEL-2) [µg/mL] | EC50 (Col2) [µg/mL] | EC50 (Lu1) [µg/mL] | EC50 (HT-1080) [µg/mL] | EC50 (P388) [µg/mL] | EC50 (KB) [µg/mL]
1 | COC(=O)C[C@H]1[C@]2(C)C3=C(C)[C@H](c4ccoc4)C[C@H]3O[C@@H]2[C@@H]2OC(=O)[C@]3(C)C=CC(=O)[C@@]1(C)[C@@H]23 [NIMBOLIDE] | 0.39 (≈ 0.836 µM) | 0.53 (≈ 1.14 µM) | 0.41 (≈ 0.879 µM) | 0.42 (≈ 0.9 µM) | 0.31 (≈ 0.664 µM) | 0.065 (≈ 0.139 µM) | 0.25 (≈ 0.536 µM)
2 | COC(=O)C[C@H]1[C@]2(C)C3=C(C)[C@H](c4ccoc4)C[C@H]3O[C@@H]2[C@@H]2OC[C@]3(C)C=CC(=O)[C@@]1(C)[C@@H]23 | 1.34 (≈ 2.96 µM) | 2.05 (≈ 4.53 µM) | 1.81 (≈ 4 µM) | 0.84 (≈ 1.86 µM) | 1.04 (≈ 2.3 µM) | 0.66 (≈ 1.46 µM) | 1.3 (≈ 2.87 µM)
